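Growth conditions: 96-well plates. Treatment: test compound, 48 hours, 5 concentrations. Analysis: linear interpolation between bracketing concentrations; unreached endpoints set to highest concentration. At the GI50, growth is halved. TGI: total growth inhibition.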
Columns and labels:
Assay in all cases: NCI tumour cell line growth inhibition, 48 h
OVCAR-5 ovarian = test system: OVCAR-5 ovarian
786-0 renal = test system: 786-0 renal
U251 CNS = test system: U251 CNS
SN12C renal = test system: SN12C renal
IGROV1 ovarian = test system: IGROV1 ovarian
SK-MEL-5 melanoma = test system: SK-MEL-5 melanoma
A498 renal = test system: A498 renal
K-562 leukemia = test system: K-562 leukemia
DU-145 prostate = test system: DU-145 prostate
BT-549 breast = test system: BT-549 breast
NCI-H226 lung = test system: NCI-H226 lung
OVCAR-4 ovarian = test system: OVCAR-4 ovarian
KM12 colon = test system: KM12 colon
RXF 393 renal = test system: RXF 393 renal
NCI-H460 lung = test system: NCI-H460 lung
SF-295 CNS = test system: SF-295 CNS
MCF7 breast = test system: MCF7 breast
HT29 colon = test system: HT29 colon
NCI-H522 lung = test system: NCI-H522 lung
SNB-19 CNS = test system: SNB-19 CNS
MDA-MB-231 breast = test system: MDA-MB-231 breast
UACC-62 melanoma = test system: UACC-62 melanoma
COLO 205 colon = test system: COLO 205 colon
HCT-116 colon = test system: HCT-116 colon
HS 578T breast = test system: HS 578T breast
SK-MEL-2 melanoma = test system: SK-MEL-2 melanoma
A549 NSCLC = test system: A549 NSCLC
SF-539 CNS = test system: SF-539 CNS
NCI-H23 lung = test system: NCI-H23 lung
HCC-2998 colon = test system: HCC-2998 colon
LOX IMVI melanoma = test system: LOX IMVI melanoma
HOP-62 NSCLC = test system: HOP-62 NSCLC
SNB-75 CNS = test system: SNB-75 CNS
UO-31 renal = test system: UO-31 renal
MOLT-4 leukemia = test system: MOLT-4 leukemia
SF-268 CNS = test system: SF-268 CNS
SK-OV-3 ovarian = test system: SK-OV-3 ovarian
OVCAR-3 ovarian = test system: OVCAR-3 ovarian
M14 melanoma = test system: M14 melanoma
ACHN renal = test system: ACHN renal
RPMI-8226 leukemia = test system: RPMI-8226 leukemia
HL-60(TB) leukemia = test system: HL-60(TB) leukemia
PC-3 prostate = test system: PC-3 prostate
SR leukemia = test system: SR leukemia
OVCAR-8 ovarian = test system: OVCAR-8 ovarian
CAKI-1 renal = test system: CAKI-1 renal
UACC-257 melanoma = test system: UACC-257 melanoma
SK-MEL-28 melanoma = test system: SK-MEL-28 melanoma
T-47D breast = test system: T-47D breast
NCI/ADR-RES ovarian = test system: NCI/ADR-RES ovarian
HCT-15 colon = test system: HCT-15 colon
HOP-92 NSCLC = test system: HOP-92 NSCLC
SW-620 colon = test system: SW-620 colon
TK-10 renal = test system: TK-10 renal
MALME-3M melanoma = test system: MALME-3M melanoma
MDA-MB-435 = test system: MDA-MB-435
CCRF-CEM leukemia = test system: CCRF-CEM leukemia

## CC(C)C[C@H](NC(=O)Cn1ccc(Nc2ccccc2)cc1=O)B(O)O
OVCAR-5 ovarian
  GI50: 6.24 µM
  TGI: 90 µM
786-0 renal
  GI50: 5.55 µM
  TGI: > 100 µM
U251 CNS
  GI50: 5040 nM
  TGI: > 100 µM
SN12C renal
  GI50: 5170 nM
  TGI: 28 µM
IGROV1 ovarian
  GI50: 6.27 µM
  TGI: > 100 µM
SK-MEL-5 melanoma
  GI50: 620 nM
  TGI: 2.88 µM
A498 renal
  GI50: 1070 nM
  TGI: 6.78 µM
K-562 leukemia
  GI50: 3670 nM
  TGI: > 100 µM
DU-145 prostate
  GI50: 10.7 µM
  TGI: > 100 µM
BT-549 breast
  GI50: 1190 nM
  TGI: 11.7 µM
NCI-H226 lung
  GI50: 352 nM
  TGI: 1470 nM
OVCAR-4 ovarian
  GI50: 5.68 µM
  TGI: > 100 µM
KM12 colon
  GI50: 3080 nM
  TGI: 12.4 µM
RXF 393 renal
  GI50: 1810 nM
  TGI: 4.78 µM
NCI-H460 lung
  GI50: 8.41 µM
  TGI: 42.5 µM
SF-295 CNS
  GI50: 3750 nM
  TGI: 40.1 µM
MCF7 breast
  GI50: 427 nM
  TGI: > 100 µM
HT29 colon
  GI50: 1060 nM
  TGI: 13.2 µM
NCI-H522 lung
  GI50: 932 nM
  TGI: 6.44 µM
SNB-19 CNS
  GI50: 16.6 µM
  TGI: > 100 µM
MDA-MB-231 breast
  GI50: 3090 nM
  TGI: 15.2 µM
UACC-62 melanoma
  GI50: 2440 nM
  TGI: 18.1 µM
COLO 205 colon
  GI50: 8.25 µM
  TGI: > 100 µM
HCT-116 colon
  GI50: 852 nM
  TGI: 5.02 µM
HS 578T breast
  GI50: 1.86 µM
  TGI: 7.16 µM
SK-MEL-2 melanoma
  GI50: 1.81 µM
  TGI: 21.3 µM
A549 NSCLC
  GI50: 8.34 µM
  TGI: > 100 µM
SF-539 CNS
  GI50: 781 nM
  TGI: 5.81 µM
NCI-H23 lung
  GI50: 3450 nM
  TGI: > 100 µM
HCC-2998 colon
  GI50: 2020 nM
  TGI: 4.76 µM
LOX IMVI melanoma
  GI50: 645 nM
  TGI: 2.27 µM
HOP-62 NSCLC
  GI50: 6.23 µM
  TGI: 40.9 µM
SNB-75 CNS
  GI50: 4540 nM
  TGI: 25.3 µM
UO-31 renal
  GI50: 5.59 µM
  TGI: 39.6 µM
MOLT-4 leukemia
  GI50: 468 nM
  TGI: 11.7 µM
SF-268 CNS
  GI50: 2880 nM
  TGI: 18.6 µM
SK-OV-3 ovarian
  GI50: 11.5 µM
  TGI: > 100 µM
OVCAR-3 ovarian
  GI50: 512 nM
  TGI: 2.78 µM
M14 melanoma
  GI50: 1740 nM
  TGI: 13.7 µM
ACHN renal
  GI50: 3.04 µM
  TGI: > 100 µM
RPMI-8226 leukemia
  GI50: 345 nM
  TGI: 0.949 µM
HL-60(TB) leukemia
  GI50: 3320 nM
  TGI: 72.6 µM
PC-3 prostate
  GI50: 5060 nM
  TGI: 36 µM
SR leukemia
  GI50: 398 nM
  TGI: > 100 µM
OVCAR-8 ovarian
  GI50: 5.47 µM
  TGI: > 100 µM
CAKI-1 renal
  GI50: 4.02 µM
  TGI: 60.4 µM
UACC-257 melanoma
  GI50: 1300 nM
  TGI: 7.68 µM
SK-MEL-28 melanoma
  GI50: 665 nM
  TGI: 4.49 µM
T-47D breast
  GI50: 1010 nM
  TGI: 3.38 µM
NCI/ADR-RES ovarian
  GI50: 65.6 µM
  TGI: > 100 µM
HCT-15 colon
  GI50: 8.66 µM
  TGI: > 100 µM
HOP-92 NSCLC
  GI50: 2490 nM
  TGI: 8.23 µM
SW-620 colon
  GI50: 2000 nM
  TGI: 23.9 µM
TK-10 renal
  GI50: 3280 nM
  TGI: 25.3 µM
MALME-3M melanoma
  GI50: 2080 nM
  TGI: 8.77 µM
MDA-MB-435
  GI50: 593 nM
  TGI: 2.29 µM

## O=CN/N=C/c1ccc(Cl)c([N+](=O)[O-])c1
OVCAR-5 ovarian
  GI50: 0.189 µM
  TGI: > 100 µM
786-0 renal
  GI50: 0.544 µM
  TGI: > 100 µM
U251 CNS
  GI50: 61.7 nM
  TGI: 25.8 µM
SN12C renal
  GI50: 503 nM
  TGI: 21.9 µM
IGROV1 ovarian
  GI50: 0.0728 µM
  TGI: 21.9 µM
SK-MEL-5 melanoma
  GI50: 402 nM
  TGI: 3.7 µM
A498 renal
  GI50: 2140 nM
  TGI: 90.5 µM
K-562 leukemia
  GI50: 197 nM
  TGI: > 100 µM
DU-145 prostate
  GI50: 0.401 µM
  TGI: > 100 µM
BT-549 breast
  GI50: 3310 nM
  TGI: 20 µM
NCI-H226 lung
  GI50: 725 nM
  TGI: > 100000 nM
OVCAR-4 ovarian
  GI50: 0.684 µM
  TGI: 60.6 µM
KM12 colon
  GI50: 228 nM
  TGI: 15.1 µM
RXF 393 renal
  GI50: 399 nM
  TGI: > 100 µM
NCI-H460 lung
  GI50: 0.0427 µM
  TGI: 14.8 µM
SF-295 CNS
  GI50: 623 nM
  TGI: > 79.9 µM
MCF7 breast
  GI50: 351 nM
  TGI: 58.6 µM
HT29 colon
  GI50: 45.7 nM
  TGI: 14.4 µM
NCI-H522 lung
  GI50: 451 nM
  TGI: 19.9 µM
SNB-19 CNS
  GI50: 0.518 µM
  TGI: 46.6 µM
MDA-MB-231 breast
  GI50: 1540 nM
  TGI: 27.3 µM
UACC-62 melanoma
  GI50: 327 nM
  TGI: 14.6 µM
COLO 205 colon
  GI50: 0.11 µM
  TGI: 15.4 µM
HCT-116 colon
  GI50: 53.6 nM
  TGI: > 100 µM
HS 578T breast
  GI50: 9.41 µM
  TGI: 40.7 µM
SK-MEL-2 melanoma
  GI50: 5.43 µM
  TGI: 22.6 µM
A549 NSCLC
  GI50: 0.337 µM
  TGI: > 100 µM
SF-539 CNS
  GI50: 309 nM
  TGI: 13.7 µM
NCI-H23 lung
  GI50: 396 nM
  TGI: 48.1 µM
HCC-2998 colon
  GI50: 370 nM
  TGI: 19.6 µM
LOX IMVI melanoma
  GI50: 111 nM
  TGI: 13.7 µM
HOP-62 NSCLC
  GI50: 1.47 µM
  TGI: 49.7 µM
SNB-75 CNS
  GI50: 787 nM
  TGI: 31.5 µM
UO-31 renal
  GI50: 54.1 µM
  TGI: > 100 µM
MOLT-4 leukemia
  GI50: 577 nM
  TGI: 46.8 µM
SF-268 CNS
  GI50: 172 nM
  TGI: 18.4 µM
SK-OV-3 ovarian
  GI50: 7.33 µM
  TGI: > 100 µM
OVCAR-3 ovarian
  GI50: 555 nM
  TGI: 20.7 µM
M14 melanoma
  GI50: 513 nM
  TGI: > 46.5 µM
ACHN renal
  GI50: 5.17 µM
  TGI: > 100 µM
RPMI-8226 leukemia
  GI50: 439 nM
  TGI: 17.4 µM
HL-60(TB) leukemia
  GI50: 125 nM
  TGI: 18.4 µM
PC-3 prostate
  GI50: 24.9 nM
  TGI: 13.2 µM
SR leukemia
  GI50: 126 nM
  TGI: 22.6 µM
OVCAR-8 ovarian
  GI50: 0.567 µM
  TGI: > 100 µM
CAKI-1 renal
  GI50: 4.04 µM
  TGI: > 100 µM
UACC-257 melanoma
  GI50: 618 nM
  TGI: 27.4 µM
SK-MEL-28 melanoma
  GI50: 899 nM
  TGI: 24 µM
T-47D breast
  GI50: 2920 nM
  TGI: 51.7 µM
NCI/ADR-RES ovarian
  GI50: > 100 µM
  TGI: > 100 µM
HCT-15 colon
  GI50: 4.14 µM
  TGI: > 100 µM
CCRF-CEM leukemia
  GI50: 243 nM
  TGI: 72.6 µM
HOP-92 NSCLC
  GI50: 1240 nM
  TGI: 21.1 µM
SW-620 colon
  GI50: 59.6 nM
  TGI: > 100 µM
TK-10 renal
  GI50: 2400 nM
  TGI: 71.3 µM
MALME-3M melanoma
  GI50: 3190 nM
  TGI: 33 µM
MDA-MB-435
  GI50: 61.1 nM
  TGI: 18.6 µM
